Source: article PMC3740496, “Synthesis and biological activities of the respiratory chain inhibitor aurachin D and new ring versus chain analogues” (Beilstein Journal of Organic Chemistry, 2013)
Converted amounts (≈) assume the structure as drawn.

Legend:
Plasmodium falciparum = system: Plasmodium falciparum; design: method as in PMID 18922036; details: cited from earlier work
[1] = system: HCT-116 human colon carcinoma cells; assay: Cytotoxicity, growth inhibition (MTT); format: cell-based; details: Homo sapiens, HCT-116, 120 h, read-out: IC50: half inhibitory concentration, HCT-116
Procedure: (§1) The cytotoxic activity of aurachin D (4) and analogues 9–11 and 17–19 was evaluated in growth inhibition experiments on mammalian cell lines (Table 2). After 5 days treatment, half inhibitory concentrations (IC50) were determined for human HCT-116 colon carcinoma and human K562 myelogenous leukemia cells. […]
(§2) was further incubated for 1.5 h. The medium was then discarded and 100 µL 2-propanol/10 N HCl (250:1) was added in order to dissolve formazan granules. The absorbance at 570 nm was measured using a microplate reader (EL808, Bio-Tek Instruments Inc.) and cell viability was expressed as a percentage relative to the respective solvent control. […]

[2] = system: K562 myelogenous leukemia cells; assay: Cytotoxicity, growth inhibition (MTT); format: cell-based; details: Homo sapiens, K562, 120 h; 5 days treatment; triplicate, mean ±SD; read-out: IC50: half inhibitory concentration, K562
Procedure: as §1, §2

[3] = system: Plasmodium falciparum FcB1 (chloroquine-resistant); assay: In vitro antiplasmodial assay ([3H]-hypoxanthine incorporation); format: cell-based; details: Plasmodium falciparum, FCB1; triplicate (except compound 24), mean ±SD; read-out: IC50 P. falciparum FcB1
Procedure: In vitro antiplasmodial assays: The chloroquine-resistant strain FcB1/Colombia of Plasmodium falciparum was maintained in vitro on human erythrocytes in RPMI 1640 medium supplemented by 8% (v/v) heat-inactivated human serum, at 37 °C, under an atmosphere of 3% CO2, 6% O2, and 91% N2. In vitro drug susceptibility assays was measured by [3H]-hypoxanthine incorporation as described. Drugs were prepared in DMSO at a 10 mg/mL concentration. Compounds were serially diluted two-fold with 100 µL culture medium in 96-well plates. Asynchronous parasite cultures (100 µL, 1% parasitaemia and 1% final hematocrite) were then added to each well and incubated for 24 h at 37 °C prior to the addition of 0.5 µCi of [3H]- hypoxanthine (GE Healthcare, France, 1 to 5 Ci·mmol/mL) per well. After a further incubation of 24 h, plates were frozen and thawed. Cell lysates were then collected onto glass-fiber filters and counted in a liquid scintillation spectrometer. The growth inhibition for each drug concentration was determined by comparison of the radioactivity incorporated in the treated culture with that in the control culture maintained on the same plate. The concentration causing 50% growth inhibition (IC50) was obtained from the drug concentration–response curve and the results were expressed as the mean values ± standard deviations determined from several […]
independent experiments. Chloroquine diphosphate (Sigma–Aldrich) was used as antimalarial drug control. […]

[4] = system: Trypanosoma brucei gambiense strain Feo bloodstream forms; assay: Antitrypanosomal assay (resazurin); format: cell-based; details: Trypanosoma brucei, GAMBIENSE; 72 h incubation; read-out: IC50 T. brucei gambiense
Procedure: page 10: independent experiments. Chloroquine diphosphate (Sigma–Aldrich) was used as antimalarial drug control. Antitrypanosomal activities: Bloodstream forms of Trypanosoma brucei gambiense strain Feo were cultured in HMI9 medium supplemented with 10% FCS at 37 °C under an atmosphere of 5% CO2. Antitrypanosomal assays were performed as previously described. In all experiments, log-phage cell cultures were harvested by centrifugation at 3,000g and immediately used. Drug assays were based on the conversion of a redox-sensitive dye (resazurin) to a fluorescent product by viable cells. Drug stock solutions were prepared in pure DMSO. […] After a 72 h incubation, resazurin solution was added in each well at the final concentration of 45 µM. Fluorescence was measured at 530 nm excitation and 590 nm emission wavelengths after a further 4 h incubation. Each inhibitor concentration was tested in triplicate. The percentage of inhibition of parasite growth rate was calculated by comparing the fluorescence of parasites maintained in the presence of drug to that in the absence of drug. DMSO was used as a control. IC50s were determined from the dose–response curves with drug concentrations ranging from 100 µM to 50 nM. Pentamidine was used as antitrypanosomal drug control. MIC determination: Indicator strains were obtained from the German Collection of Microorganisms and Cell Cultures (Deutsche Sammlung für Mikroorganismen und Zellkulturen, DSMZ) or were part of our internal strain collection. All microorganisms were handled under standard conditions recommended by the depositor. Overnight S10

[5] = system: Staphylococcus aureus DSM11822 (MRSA); assay: MIC determination; format: cell-based; details: duplicate, mean ±SD
Procedure: (§3) MIC determination: Indicator strains were obtained from the German Collection of Microorganisms and Cell Cultures (Deutsche Sammlung für Mikroorganismen und Zellkulturen, DSMZ) or were part of our internal strain collection. All microorganisms were handled under standard conditions recommended by the depositor. Overnight […]
(§4) cultures of bacteria were prepared in EBS medium (0.5% casein peptone, 0.5% proteose peptone, 0.1% meat peptone, 0.1% yeast extract; pH 7.0). Yeasts and molds were grown in Myc medium (1% phytone peptone, 1% glucose, 50 mM
(§5) HEPES, pH 7.0). The overnight cultures of microorganisms were diluted to OD600 0.01 (bacteria) or 0.05 (yeasts/molds) in the respective growth medium. Serial dilutions of compounds were prepared as duplicates in sterile 96-well plates. The cell suspension was added and microorganisms were grown overnight on a microplate shaker (900 rpm, 30 °C or 37 °C). Growth inhibition was assessed by measuring the OD600 on a plate reader (POLARstar, BMG Labtech). MIC50 values were determined as averages relative to respective control samples by sigmoidal curve fitting. […]

Bacillus subtilis DSM10 = assay: MIC determination; format: cell-based; details: Bacillus subtilis, DSM10; duplicate, mean ±SD
Procedure: as §3, §4, §5

Escherichia coli (TolC) = assay: MIC determination; format: cell-based; details: read-out: MIC50 Escherichia coli (TolC)
Procedure: as §3, §4, §5

[6] = system: Staphylococcus aureus Newman (MSSA); assay: MIC determination; format: cell-based; details: duplicate, mean ±SD
Procedure: as §3, §4, §5

[7] = system: Klebsiella pneumoniae DSM30104; assay: MIC determination; format: cell-based; details: duplicate, mean ±SD
Procedure: as §3, §4, §5

Micrococcus luteus = assay: MIC determination; format: cell-based; details: duplicate, mean ±SD
Procedure: as §3, §4, §5

[8] = system: Escherichia coli DH5α (wt); assay: MIC determination; format: cell-based; details: duplicate, mean ±SD
Procedure: as §3, §4, §5

[9] = system: Vero cells (nontumor cells); assay: Cytotoxicity on Vero cells (MTT); format: cell-based; details: 48 h incubation
Procedure: was further incubated for 1.5 h. The medium was then discarded and 100 µL 2-propanol/10 N HCl (250:1) was added in order to dissolve formazan granules. The absorbance at 570 nm was measured using a microplate reader (EL808, Bio-Tek Instruments Inc.) and cell viability was expressed as a percentage relative to the respective solvent control. VERO cells: VERO cells were seeded into 96-well microplates at 10^5 cells per mL in RPMI supplemented with 10% foetal calf serum.
After 24 h, the cells were washed and two microliters of two-fold serial dilutions of each compound (10 mg/mL) was added to 100 μL of medium. Cells were then incubated for 48 h at 37 ° C under a 5% CO2 atmosphere. At the end of incubation, 20 µL of MTT solution (5 mg/mL) was added to each well and further incubated for 4 h at 37 °C to allow the formation of formazan. The crystals of formazan were then dissolved with 100 µL of a freshly prepared solution of sodium dodecyl sulfate (SDS) 10% (15 mL) and HCl 1 N (150 µL). The optical density of each well was measured at 595 nm using a multiwell plate reader. The 50% inhibition concentration was then determined by curve fitting.
MMP assay: Human U-2 OS osteosarcoma cells (HTB-96) were obtained from the American Type Culture Collection (ATCC) and were cultured under the conditions recommended by the depositor. Cells from actively growing cultures were harvested and seeded at 8 × 10^3 cells per well in 96-well imaging plates (BD Falcon). After 1 d cells reached approximately 60% confluency and were treated with aurachin analogues at the assigned concentrations for 16 h. In addition, cells were stimulated with 1 µM FCCP [carbonyl cyanide 4-(trifluoromethoxy)phenylhydrazone] as a positive control 1 h prior to the measurement. For labeling, cells were washed twice with assay buffer ([…], 5.4 mM KCl, 2 mM MgCl2, 10 mM glucose, 2 mM CaCl2, 10 mM HEPES; pH 7.35) and 100 µL of a staining solution (50 nM TMRM,

Plasmodium = system: Plasmodium; design: method as in PMID 15215101; details: read-out: antiplasmodial IC50; cited from earlier work

CC(C)=CCC/C(C)=C/CC/C(C)=C/Cc1c(O)c(C)[n+]([O-])c2ccccc12 [aurachin B]
IC50 Plasmodium falciparum (Plasmodium falciparum): around 20 ng/mL

CC(C)=CCC/C(C)=C/CC/C(C)=C/Cc1c(C)n(O)c2ccccc2c1=O [aurachin C]
IC50 Plasmodium falciparum (Plasmodium falciparum): around 20 ng/mL | fold higher antiplasmodial activity compared to aurachin D (Plasmodium falciparum): approximately 200 fold

CC(C)=CCC/C(C)=C/CC/C(C)=C/Cc1c(C)n2c(=O)[nH]c3cccc(c1=O)c32 [aurachin E]
IC50 Plasmodium falciparum (Plasmodium falciparum): around 20 ng/mL

CC(C)=CCc1c(C)[nH]c2ccccc2c1=O [compound 10]
IC50 [1]: > 10 µg/mL | IC50 [2]: ~10 µg/mL (≈ 44 µM) | IC50 [3]: 0.55 ± 0.16 µg/mL (≈ 2.42 µM) | IC50 [4]: 5.8 µg/mL (≈ 25.5 µM) | MIC50 [5]: 11.3 ± 1.44 µg/mL (≈ 49.7 µM) | MIC50 (Bacillus subtilis DSM10): 0.22 ± 0.06 µg/mL (≈ 0.968 µM) | MIC50 (Escherichia coli (TolC)): 6.55 ± 1.36 µg/mL (≈ 28.8 µM) | MIC50 [6]: 9.66 ± 2.39 µg/mL (≈ 42.5 µM) | MIC50 [7]: > 64 µg/mL | MIC50 (Micrococcus luteus): 14.3 ± 1.29 µg/mL (≈ 63 µM) | MIC50 [8]: > 64 µg/mL

Cc1[nH]c2ccccc2c(=O)c1C [compound 11]
IC50 [1]: > 10 µg/mL | IC50 [2]: > 10 µg/mL | IC50 [3]: 2.3 ± 1.4 µg/mL (≈ 13.3 µM) | IC50 [4]: > 10 µg/mL | MIC50 [5]: > 64 µg/mL | MIC50 (Bacillus subtilis DSM10): 49 ± 6.26 µg/mL (≈ 283 µM) | MIC50 (Escherichia coli (TolC)): > 64 µg/mL | MIC50 [6]: > 64 µg/mL | MIC50 [7]: > 64 µg/mL | MIC50 (Micrococcus luteus): > 64 µg/mL | MIC50 [8]: > 64 µg/mL

Cc1c2c(c3ccccc3[n+]1[O-])O[C@H]([C@](C)(O)CCC1OC1(C)C)C2 (stereo partly shown) [compound 22]
IC50 [9]: > 50 µg/mL

Cc1cc(=O)c2ccccc2[nH]1 [compound 23, 2-methyl-4(1H)-quinolone, reference compound]
IC50 [3]: 7.7 ± 2.5 µg/mL (≈ 48.4 µM) | IC50 [4]: > 10 µg/mL

Cc1[nH]c2ccccc2c(=O)c1Br [compound 24, 3-bromo-2-methyl-4(1H)-quinolone]
IC50 [3]: 1.1 µg/mL (≈ 4.62 µM) | IC50 [4]: 1.7 µg/mL (≈ 7.14 µM)

Cc1c(C)n(O)c2ccccc2c1=O [compound 25, N-hydroxy-2,3-dimethyl-4(1H)-quinolone]
IC50 [3]: 2.7 ± 1.3 µg/mL (≈ 14.3 µM) | IC50 [4]: > 10 µg/mL

CC(C)=CCC/C(C)=C/CC/C(C)=C/CO [farnesol]
IC50 (Plasmodium): 64 µM
